Results reported in the PolyMetriX glass transition set.
± gives the standard deviation of the reports.

First: *c1ccc(Oc2ccc(-n3nccc3-c3cccc(-c4ccnn4*)c3)cc2)cc1 (repeat unit)
Second: *c1ccc(Oc2ccc(-c3ccc(Oc4ccc(-c5nc(-c6ccccn6)nnc5*)cc4)cc3)cc2)cc1 (repeat unit)
The glass transition temperature of the first is lower: 216.00 °C for the first, 230.00 °C for the second.

Compared with *Nc1ccc(*)cc1OCCCCCCCCCC (repeat unit), *CCCCCCCCCCSSSS* (repeat unit) is lower in glass transition temperature: 77.00 °C for the first, -76.00 °C for the second.

Going from *CC(*)C(=O)OCC (repeat unit) [Poly(ethyl acrylate) ] to *CC(*)NC(=O)OC(C)(C)C (repeat unit), the glass transition temperature rises from -22 ± 2.1 °C to 120.00 °C.

Compared with *Oc1ccc(CC(NC(=O)CCc2ccc(OC(=O)CCCCCCCCC(*)=O)cc2)C(=O)OCCCCCCCCCCCC)cc1 (repeat unit), *Oc1ccc(CC(NC(=O)CCc2ccc(OC(=O)COCC(*)=O)cc2)C(=O)OCC(C)C)cc1 (repeat unit) is higher in glass transition temperature: 12.50 °C for the first, 72.00 °C for the second.

Compared with *CCCCCCCCCCCC(=O)Oc1ccc(C(C)(C)c2ccc(OC(=O)c3ccc4c(c3)C(=O)N(*)C4=O)cc2)cc1 (repeat unit), *CCCCCCCCCCCOC(=O)Nc1ccc(NC(=O)OCCCCCCCCCCCOc2ccc(-c3ccc(O*)cc3)cc2)c(C)c1 (repeat unit) is lower in glass transition temperature: 93.00 °C for the first, 77.00 °C for the second.

Compared with *Oc1cc(Oc2cccc(NC(=O)c3cc(Oc4ccc(C(=O)O)c(C(=O)Nc5cccc(*)c5)c4)ccc3C(=O)O)c2)ccc1C#N (repeat unit), *Oc1ccc(Oc2ccc(C(=O)c3ccc(NC(=O)c4ccc(C(=O)Nc5ccc(C(=O)c6ccc(*)cc6)cc5)cc4)cc3)cc2)cc1 (repeat unit) is higher in glass transition temperature: 195.80 °C for the first, 224.00 °C for the second.

Compared with *CCCCCCCCCCCCCCc1ccc(-c2c(-c3ccccc3)cc(-c3cccc(-c4cc(-c5ccccc5)c(-c5ccc(*)cc5)c(-c5ccccc5)c4-c4ccccc4)c3)c(-c3ccccc3)c2-c2ccccc2)cc1 (repeat unit), *C(=O)Nc1ccc(Oc2ccc(-c3ccc(Oc4ccc(NC(=O)c5ccc6c(c5)C(=O)N(c5ccc(Oc7ccc(N8C(=O)c9ccc(*)cc9C8=O)cc7)cc5)C6=O)cc4)cc3)cc2)cc1 (repeat unit) is higher in glass transition temperature: 160.00 °C for the first, 262.00 °C for the second.

First: *CC(CC)(CCl)CO* (repeat unit)
Second: *CC(*)OC(=O)c1ccccc1Cl (repeat unit)
The glass transition temperature of the first is lower: 20.00 °C for the first, 55.8 °C for the second.

First: *Oc1cccc(S(=O)(=O)c2ccc(*)cc2)c1 (repeat unit)
Second: *Oc1ccc(S(=O)(=O)c2ccc3ccc(S(=O)(=O)c4ccc(*)cc4)cc3c2)cc1 (repeat unit)
The glass transition temperature of the first is lower: 175.00 °C for the first, 250.00 °C for the second.

First: *CC(*)c1ccc(C(=O)c2ccc(OC)cc2)cc1 (repeat unit)
Second: *Oc1ccc(C(CCC)c2ccc(OC(*)=O)cc2)cc1 (repeat unit) [Poly[1,1-butane bis(4-phenyl)carbonate] ]
The glass transition temperature of the first is lower: 103.00 °C for the first, 123 ± 0.6 °C for the second.

Going from *C(=O)Nc1ccc(-c2ccc(NC(=O)c3ccc4c(c3)C(=O)N(c3ccc(S(=O)(=O)c5ccc(N6C(=O)c7ccc(*)cc7C6=O)cc5)cc3)C4=O)cc2)cc1 (repeat unit) to *c1ccc(-c2ccc(N3C(=O)c4ccc(S(=O)(=O)c5ccc6c(c5)C(=O)N(*)C6=O)cc4C3=O)cc2C(F)(F)F)c(C(F)(F)F)c1 (repeat unit), the glass transition temperature falls from 370.00 °C to 320.00 °C.

Compared with *Oc1ccc(C(c2ccc(OC(*)=O)cc2)C(Cl)Cl)cc1 (repeat unit), *Oc1ccc(*)cc1 (repeat unit) is lower in glass transition temperature: 165.00 °C for the first, 85.00 °C for the second.

Compared with *CCN(CCN1C(=O)c2ccc(C(c3ccc4c(c3)C(=O)N(*)C4=O)(C(F)(F)F)C(F)(F)F)cc2C1=O)c1ccc(/N=N/c2ccc(C=O)cc2)cc1 (repeat unit), *c1ccc(Sc2ccc(Sc3ccc(Sc4ccc(N5C(=O)c6ccc(Sc7ccc(Sc8ccc(Sc9ccc%10c(c9)C(=O)N(*)C%10=O)cc8)cc7)cc6C5=O)cc4)cc3)cc2)cc1 (repeat unit) is higher in glass transition temperature: 170.00 °C for the first, 176.5 °C for the second.
